From BindingDB's records for PubMed 11714892 (Recordati, 2001) come the findings set out here.

For orientation: Ki means the dissociation constant of the complex between target and ligand, obtained from inhibition or displacement.

Structures are written as SMILES.

For assay [1], the target named is T1, Alpha-1D adrenergic receptor (Homo sapiens, UniProt P25100).
T1 sequence (P25100 whole entry): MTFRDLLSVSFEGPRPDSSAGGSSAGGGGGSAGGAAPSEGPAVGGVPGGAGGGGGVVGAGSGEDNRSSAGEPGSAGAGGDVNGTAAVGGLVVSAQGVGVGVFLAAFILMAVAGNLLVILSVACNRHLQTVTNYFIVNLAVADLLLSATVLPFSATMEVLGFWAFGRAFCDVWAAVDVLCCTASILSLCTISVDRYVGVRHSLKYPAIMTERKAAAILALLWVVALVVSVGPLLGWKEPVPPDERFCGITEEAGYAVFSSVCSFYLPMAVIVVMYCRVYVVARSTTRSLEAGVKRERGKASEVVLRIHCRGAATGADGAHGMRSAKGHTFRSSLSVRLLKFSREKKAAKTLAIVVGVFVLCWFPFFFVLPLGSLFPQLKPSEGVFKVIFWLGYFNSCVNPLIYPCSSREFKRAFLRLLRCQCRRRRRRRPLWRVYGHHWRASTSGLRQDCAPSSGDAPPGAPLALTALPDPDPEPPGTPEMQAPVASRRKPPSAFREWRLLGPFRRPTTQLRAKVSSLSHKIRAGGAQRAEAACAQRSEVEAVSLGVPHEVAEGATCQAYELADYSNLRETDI

In assay [2] the target is T2, Alpha-1B adrenergic receptor (Homo sapiens, UniProt P35368).
T2 sequence (P35368 whole entry): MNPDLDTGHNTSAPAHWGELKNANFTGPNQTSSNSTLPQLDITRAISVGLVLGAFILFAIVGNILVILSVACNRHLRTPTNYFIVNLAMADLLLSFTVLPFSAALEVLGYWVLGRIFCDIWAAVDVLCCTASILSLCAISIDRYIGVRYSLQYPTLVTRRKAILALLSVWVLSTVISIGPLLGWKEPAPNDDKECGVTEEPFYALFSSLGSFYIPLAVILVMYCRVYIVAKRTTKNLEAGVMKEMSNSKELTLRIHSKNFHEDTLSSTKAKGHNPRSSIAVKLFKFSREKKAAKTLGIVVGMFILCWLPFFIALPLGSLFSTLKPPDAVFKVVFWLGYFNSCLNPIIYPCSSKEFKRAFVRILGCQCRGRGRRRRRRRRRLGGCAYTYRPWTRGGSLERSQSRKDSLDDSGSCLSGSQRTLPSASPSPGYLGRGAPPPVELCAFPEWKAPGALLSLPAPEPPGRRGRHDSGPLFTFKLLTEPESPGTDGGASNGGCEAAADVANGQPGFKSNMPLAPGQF

Assay [3] addresses T3, 5-hydroxytryptamine receptor 1A (Rattus norvegicus, UniProt P19327).
T3 sequence (P19327 whole entry): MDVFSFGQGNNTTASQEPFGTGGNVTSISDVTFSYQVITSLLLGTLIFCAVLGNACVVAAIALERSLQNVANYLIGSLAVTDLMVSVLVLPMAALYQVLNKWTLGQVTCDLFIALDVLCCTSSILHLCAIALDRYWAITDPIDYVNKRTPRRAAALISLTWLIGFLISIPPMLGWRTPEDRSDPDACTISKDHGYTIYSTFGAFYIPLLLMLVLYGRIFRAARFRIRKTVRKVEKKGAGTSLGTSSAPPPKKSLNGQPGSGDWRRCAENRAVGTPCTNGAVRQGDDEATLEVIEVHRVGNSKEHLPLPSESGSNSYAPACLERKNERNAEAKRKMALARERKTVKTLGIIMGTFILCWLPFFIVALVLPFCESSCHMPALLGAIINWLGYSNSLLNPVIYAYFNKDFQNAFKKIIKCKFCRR

The target in assay [4] is T4, Alpha-1A adrenergic receptor (Homo sapiens, UniProt P35348).
T4 sequence (P35348 whole entry): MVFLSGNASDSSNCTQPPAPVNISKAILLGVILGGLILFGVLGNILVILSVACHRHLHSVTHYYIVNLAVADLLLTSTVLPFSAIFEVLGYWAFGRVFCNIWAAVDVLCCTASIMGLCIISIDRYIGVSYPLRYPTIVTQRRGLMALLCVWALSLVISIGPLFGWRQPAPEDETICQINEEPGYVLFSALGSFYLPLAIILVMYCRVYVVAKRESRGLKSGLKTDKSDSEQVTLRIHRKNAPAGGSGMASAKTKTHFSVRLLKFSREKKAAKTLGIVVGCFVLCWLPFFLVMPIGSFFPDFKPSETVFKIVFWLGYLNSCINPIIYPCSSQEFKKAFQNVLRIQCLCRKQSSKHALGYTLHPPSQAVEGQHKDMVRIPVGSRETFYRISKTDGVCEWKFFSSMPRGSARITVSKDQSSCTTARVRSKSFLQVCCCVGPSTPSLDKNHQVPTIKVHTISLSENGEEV

Take `COc1ccccc1N1CCN(CCN(C(=O)C2CCCCC2)c2ccccc2[N+](=O)[O-])CC1` [N-[2-[4-(2-methoxyphenyl)-1-piperazinyl]-ethyl]-N-(2-nitrophenyl)cyclohexanecarboxamide]: the Ki in assay [1] came out at 5.7 nM; in assay [2], 105 nM; in assay [3] it was 0.7 nM; in assay [4], 81 nM.
